The source of these data is patent US9714233B2, “Processes and intermediates for making a JAK inhibitor” (Incyte Corporation, priority 2013, dated 2017).

In the test the target is T1, human JAK1 (a.a. 837-1142) catalytic domain (Homo sapiens, UniProt P23458).
T1 construct: human JAK1 (a.a. 837-1142); His tag (N); made in house; host or cells: insect cells (baculovirus)
The test can be described thus: In vitro JAK kinase assay (HTRF, phosphorylation of biotinylated peptide), JAK1. Particulars: measured at 1 mM ATP. The format is biochemical. Here is the method:
The compound of Formula I was tested for inhibitory activity of JAK targets according to the following in vitro assay described in Park et al., Analytical Biochemistry 1999, 269, 94-104. The catalytic domains of human JAK1 (a.a. 837-1142) and JAK2 (a.a. 828-1132) with an N-terminal His tag were expressed using baculovirus in insect cells and purified. The catalytic activity of JAK1 and JAK2 was assayed by measuring the phosphorylation of a biotinylated peptide. The phosphorylated peptide was detected by homogenous time resolved fluorescence (HTRF). IC50s of compounds were measured for each kinase in the 40 microL reactions that contain the enzyme, ATP and 500 nM peptide in 50 mM Tris (pH 7.8) buffer with 100 mM NaCl, 5 mM DTT, and 0.1 mg/mL (0.01%) BSA. For the 1 mM IC50 measurements, ATP concentration in the reactions was 1 mM. Reactions were carried out at room temperature for 1 hr and then stopped with 20 μL 45 mM EDTA, 300 nM SA-APC, 6 nM Eu-Py20 in assay buffer (Perkin Elmer, Boston, Mass.). Binding to the Europium labeled antibody took place for 40 minutes and HTRF signal was measured on a Fusion plate reader (Perkin Elmer, Boston, Mass.).

The structures appear in SMILES notation. Where only a bound is given, the exact number is not on record here.

T1 sequence (P23458 849-1154 limits assumed): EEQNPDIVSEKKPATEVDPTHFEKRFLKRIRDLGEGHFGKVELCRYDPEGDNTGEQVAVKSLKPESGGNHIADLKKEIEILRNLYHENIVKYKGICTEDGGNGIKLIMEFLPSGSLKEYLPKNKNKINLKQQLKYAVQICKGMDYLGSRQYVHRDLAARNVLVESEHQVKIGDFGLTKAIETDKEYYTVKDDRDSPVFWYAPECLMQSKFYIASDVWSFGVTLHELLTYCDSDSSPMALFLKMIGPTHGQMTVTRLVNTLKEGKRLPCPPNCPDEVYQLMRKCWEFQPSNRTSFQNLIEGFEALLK

Take `N#CCC1(n2cc(-c3ncnc4[nH]ccc34)cn2)CN(C2CCN(C(=O)c3ccnc(C(F)(F)F)c3F)CC2)C1` [Formula I, {1-{1-[3-fluoro-2-(trifluoromethyl)isonicotinoyl]piperidin-4-yl}-3-[4-(7H-pyrrolo[2,3-d]pyrimidin-4-yl)-1H-pyrazol-1-yl]azetidin-3-yl}acetonitrile]: the IC50 was not above 5 nM.

A word on the IC50: it is the concentration needed to halve the response being measured.
